Test results published in patent US20250368627A1, “PYRAZOLESULFONAMIDES AS ANTITUMOR AGENTS” (Peloton Therapeutics, Inc., a fully owned subsidiary of …, priority 2019, published 2025).
pEC50, pIC50: −log10 of the molar value.

Columns and labels:
[1] = molecular target: T1, DDB1DB/DCAF15 and RBM39 R1R2 complex (Homo sapiens, UniProt Q14498+Q66K64); assay: DCAF15 RBM39 Complex Formation Assay (FRET); assay type: binding; conditions: FRET ratio Em 665/Em 615, incubated overnight at 4° C.
T1 construct: Amino acids 150 to 331 of RBM39 were cloned into pGEX4T3; GST (from vector pGEX4T3); TEV cleavage site (N); made in house; host or cells: DDB1DB/His-DCAF15: baculovirus/Sf9 co-expression; RBM39 R1R2: E. coli (pGEX4T3)
Method in brief: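 Ternary complex formation read by TR-FRET (Em 665/615, excitation 340 nm) after overnight incubation at 4° C of 20 nM baculovirus DDB1DB/His-DCAF15 and 50 nM E. coli RBM39 RRM1-RRM2 FLAG fragment with 14-point, 3-fold compound dilutions from 1 μM; EC50 from 4-parameter fit.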

[2] = system: HCT116 human colorectal carcinoma cells; assay: CellTiter-Glo Luminescent Cell Viability Assay; assay type: cell-based; conditions: HCT-116, 72 h, 3 days
Method in brief: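 CellTiter-Glo luminescence gave viability after 3 days of compound exposure in HCT116 cells grown in DMEM/10% FBS. Final concentrations ran from 5 to 0.0002 […] in 1:3 steps, each in triplicate, with IC50 derived from the curves.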

T1 sequence (Q66K64 whole entry, the tested form may be a part): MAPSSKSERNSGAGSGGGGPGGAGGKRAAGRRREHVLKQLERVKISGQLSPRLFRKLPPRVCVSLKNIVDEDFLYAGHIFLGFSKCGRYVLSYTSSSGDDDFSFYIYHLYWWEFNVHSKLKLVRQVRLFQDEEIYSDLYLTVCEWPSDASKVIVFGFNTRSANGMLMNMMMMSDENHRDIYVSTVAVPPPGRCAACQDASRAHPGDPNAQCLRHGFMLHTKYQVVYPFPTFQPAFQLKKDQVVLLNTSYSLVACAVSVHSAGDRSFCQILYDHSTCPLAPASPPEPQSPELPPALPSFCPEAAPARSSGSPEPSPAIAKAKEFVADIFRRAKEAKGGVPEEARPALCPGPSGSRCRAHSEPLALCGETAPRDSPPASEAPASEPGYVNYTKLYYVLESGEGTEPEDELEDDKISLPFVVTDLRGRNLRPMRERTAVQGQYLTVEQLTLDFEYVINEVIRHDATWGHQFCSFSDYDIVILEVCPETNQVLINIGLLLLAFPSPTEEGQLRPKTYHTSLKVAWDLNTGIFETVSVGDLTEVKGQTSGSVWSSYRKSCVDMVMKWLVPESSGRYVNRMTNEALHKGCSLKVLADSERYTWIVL
T1 sequence (Q14498 150-331): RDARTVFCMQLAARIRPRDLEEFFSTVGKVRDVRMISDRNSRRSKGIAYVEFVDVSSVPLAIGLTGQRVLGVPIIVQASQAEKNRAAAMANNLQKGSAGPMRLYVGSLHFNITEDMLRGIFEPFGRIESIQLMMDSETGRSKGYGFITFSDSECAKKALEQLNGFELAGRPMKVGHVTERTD
T1 sequence (Q16531 with tags, fused parts or gaps DEL396-708 partner): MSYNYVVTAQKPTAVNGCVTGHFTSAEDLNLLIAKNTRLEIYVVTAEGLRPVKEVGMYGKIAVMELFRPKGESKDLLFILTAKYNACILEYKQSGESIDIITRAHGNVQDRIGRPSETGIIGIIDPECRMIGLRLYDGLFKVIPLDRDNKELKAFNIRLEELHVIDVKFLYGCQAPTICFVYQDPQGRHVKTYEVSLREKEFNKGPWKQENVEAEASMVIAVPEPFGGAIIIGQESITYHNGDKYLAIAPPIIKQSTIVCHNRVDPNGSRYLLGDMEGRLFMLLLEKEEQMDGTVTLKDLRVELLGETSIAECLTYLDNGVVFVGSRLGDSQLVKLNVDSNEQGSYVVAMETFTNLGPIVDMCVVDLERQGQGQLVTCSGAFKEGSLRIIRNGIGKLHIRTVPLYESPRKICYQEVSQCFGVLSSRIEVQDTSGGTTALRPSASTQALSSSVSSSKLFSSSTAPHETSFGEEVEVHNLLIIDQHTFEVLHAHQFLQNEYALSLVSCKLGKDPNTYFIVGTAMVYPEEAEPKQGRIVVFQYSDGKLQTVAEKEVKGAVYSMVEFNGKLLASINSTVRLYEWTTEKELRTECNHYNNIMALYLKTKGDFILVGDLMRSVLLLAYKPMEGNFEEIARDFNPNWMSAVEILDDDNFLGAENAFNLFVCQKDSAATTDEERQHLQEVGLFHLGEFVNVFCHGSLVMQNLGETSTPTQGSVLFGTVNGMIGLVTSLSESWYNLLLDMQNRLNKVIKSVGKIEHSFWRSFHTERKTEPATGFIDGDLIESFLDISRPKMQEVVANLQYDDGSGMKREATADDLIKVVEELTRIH

| Structure (SMILES) | pIC50 [1] | pEC50 [2] |
| --- | --- | --- |
| Cc1ccc(NS(=O)(=O)c2cnn(C3CCN(CC(F)(F)F)CC3)c2)c2[nH]cc(C#N)c12 [Compound 87, N-(3-cyano-4-methyl-1H-indol-7-yl)-1-[1-(2,2,2-trifluoroethyl)-4-piperidyl]pyrazole-4-sulfonamide] | > 6.60 | < 6.00 |
| Cc1ccc(NS(=O)(=O)c2cnn(C3CCCC3)c2)c2[nH]cc(C#N)c12 [Compound 88, N-(3-cyano-4-methyl-1H-indol-7-yl)-1-cyclopentyl-pyrazole-4-sulfonamide] | > 6.60 | 6.00 to 6.60 |
| Cc1ccc(NS(=O)(=O)c2cnn(Cc3ccccc3)c2)c2[nH]cc(C#N)c12 [Compound 89, 1-benzyl-N-(3-cyano-4-methyl-1H-indol-7-yl)pyrazole-4-sulfonamide] | > 6.60 | 6.00 to 6.60 |
| CCCn1cc(S(=O)(=O)Nc2ccc(C)c3c(C#N)c[nH]c23)cn1 [Compound 90, N-(3-cyano-4-methyl-1H-indol-7-yl)-1-propyl-pyrazole-4-sulfonamide] | > 6.60 | > 6.60 |
| N#Cc1c[nH]c2c(NS(=O)(=O)c3cnn(CC(F)F)c3)ccc(Cl)c12 [Compound 91, N-(4-chloro-3-cyano-1H-indol-7-yl)-1-(2,2-difluoroethyl)pyrazole-4-sulfonamide] | > 6.60 | 6.00 to 6.60 |
| N#Cc1c[nH]c2c(NS(=O)(=O)c3cnn(CC(F)F)c3)ccc(F)c12 [Compound 92, N-(3-cyano-4-fluoro-1H-indol-7-yl)-1-(2,2-difluoroethyl)pyrazole-4-sulfonamide] | > 6.60 | 6.00 to 6.60 |
| Cc1ccc(NS(=O)(=O)c2cnn(S(C)(=O)=O)c2)c2[nH]cc(C#N)c12 [Compound 93, N-(3-cyano-4-methyl-1H-indol-7-yl)-1-methylsulfonyl-pyrazole-4-sulfonamide] | > 6.60 | 6.00 to 6.60 |
| Cc1ccc(NS(=O)(=O)c2cnn(C(C)(C)C)c2)c2[nH]cc(C#N)c12 [Compound 94, 1-tert-butyl-N-(3-cyano-4-methyl-1H-indol-7-yl)pyrazole-4-sulfonamide] | > 6.60 | > 6.60 |
| CC(C)(C)n1cc(S(=O)(=O)Nc2cccc3c(Cl)c[nH]c23)cn1 [Compound 95, 1-tert-butyl-N-(3-chloro-1H-indol-7-yl)pyrazole-4-sulfonamide] | > 6.60 | 6.00 to 6.60 |
| Cn1cc(S(=O)(=O)Nc2ccc(C(F)(F)F)c3cc[nH]c23)cn1 [Compound 96, 1-methyl-N-[4-(trifluoromethyl)-1H-indol-7-yl]pyrazole-4-sulfonamide] | 6.00 to 6.60 | < 6.00 |
| Cn1cc(S(=O)(=O)Nc2ccc(C(F)(F)F)c3c(Cl)c[nH]c23)cn1 [Compound 97, N-[3-chloro-4-(trifluoromethyl)-1H-indol-7-yl]-1-methyl-pyrazole-4-sulfonamide] | > 6.60 | < 6.00 |
| Cc1ccc(NS(=O)(=O)c2cnn(CC(F)F)c2)c2[nH]cc(Cl)c12 [Compound 98, N-(3-chloro-4-methyl-1H-indol-7-yl)-1-(2,2-difluoroethyl)pyrazole-4-sulfonamide] | > 6.60 | > 6.60 |
| Cc1ccc(NS(=O)(=O)c2cnn(S(=O)(=O)CF)c2)c2[nH]cc(C#N)c12 [Compound 100, N-(3-cyano-4-methyl-1H-indol-7-yl)-1-(fluoromethylsulfonyl)pyrazole-4-sulfonamide] | > 6.60 | 6.00 to 6.60 |
| Cc1ccc(NS(=O)(=O)c2cnn(S(=O)(=O)c3ccccc3)c2)c2[nH]cc(C#N)c12 [Compound 101, 1-(benzenesulfonyl)-N-(3-cyano-4-methyl-1H-indol-7-yl)pyrazole-4-sulfonamide] | > 6.60 | 6.00 to 6.60 |
| CCn1ncc(S(=O)(=O)Nc2ccc(C)c3c(C#N)c[nH]c23)c1F [Compound 102, N-(3-Cyano-4-methyl-1H-indol-7-yl)-1-ethyl-5-fluoro-pyrazole-4-sulfonamide] | > 6.60 | > 6.60 |
